Assay results published in the supplement of paper PMC8149375.

Legend:
Details in all cases: treatment: drug alone; 5 days
769-P [1] = test: GI50, drug alone; higher = less potent
Procedure: (§1)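 Primary HTS: 8 RCC cell lines treated with 8 doses (up to 10 uM) of each library drug alone for 5 days; viability read by CellTiter-Glo and normalised to DMSO. GI50 was fitted with XLfit (4-parameter), AUC is the area under the dose-response curve, and minimum viability is the lowest fraction of DMSO viability across doses.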

786-O [2] = test: GI50, drug alone; higher = less potent
Procedure: as §1

A498 [3] = test: GI50, drug alone; higher = less potent
Procedure: as §1

ACHN [4] = test: GI50, drug alone; higher = less potent
Procedure: as §1

CAKI-1 [5] = test: GI50, drug alone; higher = less potent
Procedure: as §1

SN12C [6] = test: GI50, drug alone; higher = less potent
Procedure: as §1

TK-10 [7] = test: GI50, drug alone; higher = less potent
Procedure: as §1

UO-31 [8] = test: GI50, drug alone; higher = less potent
Procedure: as §1

769-P [9] = test: minimum viability across doses, drug alone, relative to DMSO (fraction); higher = less growth inhibition
Procedure: as §1

786-O [10] = test: as above
Procedure: as §1

A498 [11] = test: as above
Procedure: as §1

ACHN [12] = test: as above
Procedure: as §1

CAKI-1 [13] = test: as above
Procedure: as §1

SN12C [14] = test: as above
Procedure: as §1

TK-10 [15] = test: as above
Procedure: as §1

UO-31 [16] = test: as above
Procedure: as §1

769-P [17] = test: AUC of dose-response viability curve, drug alone (arbitrary (AUC of normalised viability)); higher = less growth inhibition
Procedure: as §1

786-O [18] = test: as above
Procedure: as §1

A498 [19] = test: as above
Procedure: as §1

ACHN [20] = test: as above
Procedure: as §1

CAKI-1 [21] = test: as above
Procedure: as §1

SN12C [22] = test: as above
Procedure: as §1

TK-10 [23] = test: as above
Procedure: as §1

UO-31 [24] = test: as above
Procedure: as §1

SMILES	GI50, drug alone (786-O [2])	GI50, drug alone (ACHN [4])	GI50, drug alone (769-P [1])	GI50, drug alone (A498 [3])	GI50, drug alone (CAKI-1 [5])	GI50, drug alone (SN12C [6])	GI50, drug alone (TK-10 [7])	GI50, drug alone (UO-31 [8])	minimum viability across doses (769-P [9])	minimum viability across doses (786-O [10])	minimum viability across doses (A498 [11])	minimum viability across doses (ACHN [12])	minimum viability across doses (CAKI-1 [13])	minimum viability across doses (SN12C [14])	minimum viability across doses (TK-10 [15])	minimum viability across doses (UO-31 [16])	AUC of dose-response viability curve (769-P [17])	AUC of dose-response viability curve (786-O [18])	AUC of dose-response viability curve (A498 [19])	AUC of dose-response viability curve (ACHN [20])	AUC of dose-response viability curve (CAKI-1 [21])	AUC of dose-response viability curve (SN12C [22])	AUC of dose-response viability curve (TK-10 [23])	AUC of dose-response viability curve (UO-31 [24])
COc1cc2nccc(Oc3ccc(NC(=O)NC4CC4)c(Cl)c3)c2cc1C(N)=O [E7080 (Lenvatinib)]	> 10 µM	> 10000 nM	> 10 µM	> 10 µM	2270 nM	> 10000 nM	> 10 µM	> 10 µM	0.907	0.786	0.941	0.532	0.267	0.734	0.806	1.18	3.46	3.13	3.79	3.06	2.71	3.21	3.24	2.25
Cc1cc(Nc2cc(N3CCN(C)CC3)nc(/C=C/c3ccccc3)n2)n[nH]1.O=C(O)[C@H](O)[C@@H](O)C(=O)O [ENMD-2076]	0.518 µM	344 nM	2 µM	4.11 µM	456 nM	1090 nM	1.15 µM	1.56 µM	0.227	0.0558	0.427	0.109	0.038	0.162	0.146	0.0165	2.64	1.82	3.06	2.1	2.02	2.46	2.31	3.01
C#Cc1cccc(Nc2ncnc3cc(OCCOC)c(OCCOC)cc23)c1.Cl [Erlotinib HCl]	> 10 µM	1040 nM	3.68 µM	> 10 µM	3610 nM	> 10000 nM	5.25 µM	> 10 µM	0.39	0.549	0.915	0.137	0.183	0.731	0.471	0.961	2.66	3.37	3.55	2.43	2.99	3.46	2.59	3.8

The next lines start with results.

GI50, drug alone (786-O [2])	GI50, drug alone (ACHN [4])	SMILES	GI50, drug alone (769-P [1])	GI50, drug alone (A498 [3])	GI50, drug alone (CAKI-1 [5])	GI50, drug alone (SN12C [6])	GI50, drug alone (TK-10 [7])	GI50, drug alone (UO-31 [8])	minimum viability across doses (769-P [9])	minimum viability across doses (786-O [10])	minimum viability across doses (A498 [11])	minimum viability across doses (ACHN [12])	minimum viability across doses (CAKI-1 [13])	minimum viability across doses (SN12C [14])	minimum viability across doses (TK-10 [15])	minimum viability across doses (UO-31 [16])	AUC of dose-response viability curve (769-P [17])	AUC of dose-response viability curve (786-O [18])	AUC of dose-response viability curve (A498 [19])	AUC of dose-response viability curve (ACHN [20])	AUC of dose-response viability curve (CAKI-1 [21])	AUC of dose-response viability curve (SN12C [22])	AUC of dose-response viability curve (TK-10 [23])	AUC of dose-response viability curve (UO-31 [24])
6.95 µM	510 nM	CN1CCN(c2ccc3nc(-c4c(N)c5c(F)cccc5[nH]c4=O)[nH]c3c2)CC1 [Dovitinib (TKI-258)]	2.56 µM	6.94 µM	451 nM	956 nM	2.26 µM	3.54 µM	0.0627	0.395	0.351	0.116	0.13	0.079	0.252	0.207	2.64	3.27	3.15	2.18	2.18	2.36	2.5	3.69
2.9 µM	303 nM	CC(O)C(=O)O.CC(O)C(=O)O.CN1CCN(c2ccc3nc(-c4c(N)c5c(F)cccc5[nH]c4=O)[nH]c3c2)CC1 [Dovitinib Dilactic acid (TKI258 Dilactic acid)]	3.05 µM	> 10 µM	430 nM	1160 nM	3.16 µM	6.52 µM	0.034	0.191	0.494	0.107	0.0485	0.0691	0.304	0.342	3.15	2.9	4.64	2	2.21	2.38	2.61	4.66
